For three compounds, IC50 results are on record in ChEMBL document CHEMBL5728888, “Metallo-beta-lactamase inhibitors and methods of use thereof” (2021).

The structures appear in SMILES notation.

Chain of Metallo-beta-lactamase type 2 (C7C422 whole entry): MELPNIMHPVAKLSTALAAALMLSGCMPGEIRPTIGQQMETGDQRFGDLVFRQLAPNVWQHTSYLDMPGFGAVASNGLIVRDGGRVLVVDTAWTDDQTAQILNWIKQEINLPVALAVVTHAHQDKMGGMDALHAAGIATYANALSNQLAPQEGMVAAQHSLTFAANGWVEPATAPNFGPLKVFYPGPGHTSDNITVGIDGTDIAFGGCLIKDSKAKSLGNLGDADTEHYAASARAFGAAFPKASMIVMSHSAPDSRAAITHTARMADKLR

The test addresses Metallo-beta-lactamase type 2 (Bacteria, UniProt C7C422). Briefly: Enzyme Activity: Determination of IC50 : The Class B enzyme activities were measured in the presence of the test inhibitor in a fluorescence assay against a commercially available substrate consisting of a cephalosporin core linking 7-hydroxycoumarin to fluorescein (CCF2-FA). The enzyme (NDM-1, IMP-1 or VIM-1) and the substrate were diluted in 100 mM KH2PO4 buffer (pH 7) containing 0.005% Tween-20 and 10 μM ZnSO4. In the assay, the final concentration of enzyme was 1 pM, 2 pM and 30 pM for NDM-1, IMP-1 and VIM-1, respectively, and the final concentration of CCF2-FA was 1.25 μM. The test inhibitor was dissolved in dimethylsulfoxide and diluted 1:50 in the assay, resulting in a final concentration range of 20 μM to 0.00063 μM. In a 384-well microplate, the test inhibitor was incubated with the metallo-β-lactamase enzyme and the substrate for 2 hours at 25° C. Fluorescence at 460 nm following excitation at 405 nm was measured. The IC50 value was determined from semi-logarithmic plots of enzyme inhibition versus inhibitor concentration, with a curve generated using a 4-parameter fit.
What is called IC50 is the concentration that gives 50% inhibition. With `NC[C@@H](O)CNS(=O)(=O)c1ccc(Nc2ncc[nH]2)c(-c2nn[nH]n2)c1S(N)(=O)=O`, the IC50 is 10.8 nM.

For `NC[C@@H](O)CNS(=O)(=O)c1ccc(N2CC[C@H](CN)C2)c(-c2nn[nH]n2)c1S(N)(=O)=O`, the 50% inhibitory concentration (IC50) was 16.8 nM.

With `NCC1CCN(c2ccc(S(=O)(=O)N[C@@H]3CCNC3)c(S(N)(=O)=O)c2-c2nn[nH]n2)CCN1` (stereo partly drawn), the IC50 came out at 19.2 nM.
